Experimental data taken from patent US8497382B2, “Carboxylic acid derivative containing thiazole ring and pharmaceutical use thereof” (Mitsubishi Tanabe Pharma Corporation, priority 2008, dated 2013).

What was measured:
[1] = molecular target: T1, Human Peroxisome Proliferator-Activated Receptor (PPAR)α (Homo sapiens, UniProt Q07869); assay: Transactivation test for human PPARα (GAL4-hPPARαLBD luciferase reporter in CV-1 cells); format: cell-based; conditions: for EC50: CV-1 cells, GAL4-hPPARαLBD, luciferase activity after 24 hr, read-out: transactivation action (EC50, nmol/l)
T1 construct: expressed in transfected cells
T1 sequence (Q07869 239-466 limits assumed): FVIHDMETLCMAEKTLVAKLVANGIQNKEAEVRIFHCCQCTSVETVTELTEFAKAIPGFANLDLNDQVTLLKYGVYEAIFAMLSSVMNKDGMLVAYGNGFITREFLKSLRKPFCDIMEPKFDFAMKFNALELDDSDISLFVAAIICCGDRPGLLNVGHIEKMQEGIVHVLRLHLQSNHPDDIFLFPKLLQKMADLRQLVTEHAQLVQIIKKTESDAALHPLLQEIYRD
Description: Transactivation Test for Human Peroxisome Proliferator-Activated Receptor (PPAR)α
CV-1 cells (CCL-70, manufactured by Dainippon Pharma Co., Ltd.) cultured in Dulbecco's Modified Eagle Medium (DMEM) containing 10% fetal bovine serum (FBS) were transfected, using Lipofectamine 2000 (manufactured by Invitrogen), with pBIND vector (manufactured by Promega) that expresses a fusion protein of a DNA binding region of a yeast transcription factor (GAL4) and a human PPARα ligand binding region (GAL4-hPPARαLBD, manufactured based on Diabetes 47: 1841-1847, 1998), and an internal standard renilla luciferase, and GAL4 responsive TK vector that expresses reporter firefly luciferase (manufactured by Promega). 24 hr later, the medium was changed to a serum free medium containing a test compound, and the luciferase activity after 24 hr was measured.

normal rats = assay: Blood triglyceride (TG)-lowering action in normal rats; format: in vivo; conditions: normal male SD rats; for TG lowering rate: p.o., once a day for 4 days, non-fasting; for TG-lowering action: 0.01 mg/kg
Procedure: 1) Blood Triglyceride (TG)-Lowering Action in Normal Rats
7 to 9-week-old male SD rats (manufactured by SEAC Yoshitomi, Ltd.) were used for the test. A test compound and a control compound (GW-9578: J. Med. Chem. 1999, 42, 3785-3788) were dissolved or suspended in 1% ethanol, 0.05% Tween80 (final concentration), and 0.5% hydroxypropylmethyl cellulose (HPMC) was added to adjust to a given concentration. The prepared solution was orally administered once a day for 4 days. After administration for 4 days, blood samples were collected from the jugular vein under non-fasting condition and blood TG was measured by an enzyme method. The lowering rate was calculated by determining the rate of a value obtained by subtracting the average blood TG of a drug administration group from the average blood TG of a vehicle administration group, to the average blood TG of the vehicle administration group.

[2] = system: high cholesterol diet-treated rat; assay: Influence on serum lipid of high cholesterol diet-treated rat; format: in vivo, SD rats; conditions: once a day for 5 days, high cholesterol diet rats
Procedure: 2) Influence on Serum Lipid of High Cholesterol Diet-Treated Rat
8-week-old male SD rats (manufactured by SEAC Yoshitomi, Ltd.) were raised on a standard diet CE-2 (manufactured by Japan Clea, Inc.) added with 1% cholesterol, 2% olive oil and 0.2% cholic acid, from one week before test compound administration to the last day of the administration. A test compound and a control compound (GW-9578) were dissolved or suspended in 1% ethanol and 0.05% Tween80 (final concentration), and 0.5% hydroxypropylmethyl cellulose (HPMC) was added to adjust to a given concentration. The prepared solution was orally administered once a day for 5 days. After administration for 5 days, blood samples were collected from the jugular vein under non-fasting condition and blood lipid was measured by an enzyme method. The lowering rate was calculated by determining the rate of a value obtained by subtracting the average blood TG (or average blood TC) of a drug administration group from the average blood triglyceride (TG) (or average blood total cholesterol (TC)) of a vehicle administration group, to the average blood TG (or average blood TC) of the vehicle administration group.

CYP2C9 [3] = molecular target: T2, CYP2C9 (Homo sapiens, UniProt P11712); assay: Metabolizing isoform identification test, microsome expressing CYP2C9; format: in vitro ADME; conditions: microsome expressing CYP at 50 pmol CYP/mL, 2 μmol/L, 37° C., 20 min
Procedure: (§1) Metabolizing Isoform Identification Test (Oxidative Metabolism by Microsome)
(§2) As a reaction mixture for the CYP isoform identification, a reaction mixture containing microsome [^14C-labeled test compound (2 μmol/L), microsome (human liver microsome at 0.5 mg protein/mL or microsome expressing CYP at 50 pmol CYP/mL (Control microsome, CYP1A2, CYP2A6, CYP2B6, CYP2C8, CYP2C9, CYP2C19, CYP2D6, CYP2E1 or CYP3A4)), EDTA (0.05 mmol/L) and Na—K phosphate buffer (pH 7.4, 0.1 mol/L)] was prepared and, after preincubation at 37° C. for 5 min, a solution of the NADPH generating system [β-NADP+ (0.5 mmol/L), glucose-6-phosphate (G-6-P) (5.0 mmol/L), magnesium chloride (5.0 mmol/L) and G-6-P DH (1.0 unit/mL)] was added to start the reaction. For CYP expressing microsomes for CYP2A6 and CYP2C9, Tris-HCl buffer (pH 7.4, 0.1 mol/L) was used instead of Na—K phosphate buffer (pH 7.4, 0.1 mol/L).
(§3) These reaction mixtures were incubated at 37° C. for 20 min, and a 3-fold amount of ethanol was added to the reaction mixtures to terminate the reaction. To the reaction mixture was added a predetermined amount of an unlabeled metabolite mixed solution, and the mixture was stirred (about 5 min), centrifuged (4° C., 3000 rpm, 10 min) and the supernatant was collected. […] From the obtained radiochromatogram, the metabolism activity and metabolite generating activity of the ^14C-labeled test compound was calculated.

CYP3A4 = CYP3A4 (Homo sapiens, UniProt P08684); assay: Metabolizing isoform identification test, microsome expressing CYP3A4; format: in vitro ADME; conditions: microsome expressing CYP at 50 pmol CYP/mL, 2 μmol/L, 37° C., 20 min
Procedure: as §1, §2, §3

CYP2C9 [4] = molecular target: T2, CYP2C9; assay: Investigation using an inhibitor (Sulfaphenazole) in human liver microsome; format: in vitro ADME; design: human liver microsome (0.5 mg protein/mL); from tissue; host or cells: human liver microsome; conditions: Sulfaphenazole 10 μmol/L, test compound 0.2 and 2 μmol/L
Procedure: On the other hand, as a reaction mixture for studying inhibitors, [^14C-labeled test compound (0.2 μmol/L and 2 μmol/L), inhibitor solution (Sulfaphenazole) (10 μmol/L), human liver microsome (0.5 mg protein/mL), EDTA (0.05 mmol/L) and Na—K phosphate buffer (pH 7.4, 0.1 mol/L)] was prepared and, after preincubation at 37° C. for 5 min, a solution of the NADPH generating system was added thereto to start the reaction.
as §3, with “collected. To the residue was added a 3-fold amount of ethanol relative to the reaction mixture, and the mixture was stirred (about 5 min), and centrifuged (4° C., 3000 rpm, 10 min). The supernatant was collected and combined with the supernatant collected earlier, and the solvent was evaporated under a nitrogen stream at about 40° C.” for “collected.”

CYP2C8 = molecular target: T3, CYP2C8 (Homo sapiens, UniProt P10632); assay: Metabolizing isoform identification test, microsome expressing CYP2C8; format: in vitro ADME; conditions: microsome expressing CYP at 50 pmol CYP/mL, 2 μmol/L, 37° C., 20 min
T3 sequence (P10632 1-490): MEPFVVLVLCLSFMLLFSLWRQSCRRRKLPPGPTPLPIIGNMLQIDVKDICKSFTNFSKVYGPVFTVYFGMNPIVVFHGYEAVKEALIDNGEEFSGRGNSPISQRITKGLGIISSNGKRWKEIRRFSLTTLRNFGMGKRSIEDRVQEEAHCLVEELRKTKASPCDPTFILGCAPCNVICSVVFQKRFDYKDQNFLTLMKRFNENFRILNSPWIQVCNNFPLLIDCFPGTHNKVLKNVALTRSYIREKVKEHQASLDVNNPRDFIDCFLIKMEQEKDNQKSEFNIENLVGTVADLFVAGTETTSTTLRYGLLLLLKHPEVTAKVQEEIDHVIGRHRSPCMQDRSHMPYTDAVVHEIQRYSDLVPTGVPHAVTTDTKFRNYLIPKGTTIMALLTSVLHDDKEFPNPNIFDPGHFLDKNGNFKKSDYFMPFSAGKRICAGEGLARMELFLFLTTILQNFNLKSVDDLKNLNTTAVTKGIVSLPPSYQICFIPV
Procedure: as §1, §2, §3

CYP2C19 = CYP2C19 (Homo sapiens, UniProt P33261); assay: Metabolizing isoform identification test, microsome expressing CYP2C19; format: in vitro ADME; conditions: microsome expressing CYP at 50 pmol CYP/mL, 2 μmol/L, 37° C., 20 min
Procedure: as §1, §2, §3

[5] = Metabolizing isoform identification test (oxidative metabolism by microsome), human liver microsome; format: in vitro ADME; conditions: for oxidative metabolism by human liver microsome: 14C-labeled test compound 2 μmol/L, 0.5 mg protein/mL, 37° C., 20 min
Procedure: as §1, §2
These reaction mixtures were incubated at 37° C. for 20 min, and a 3-fold amount of ethanol was added to the reaction mixtures to terminate the reaction. To the reaction mixture was added a predetermined amount of an unlabeled metabolite mixed solution, and the mixture was stirred (about 5 min), centrifuged (4° C., 3000 rpm, 10 min) and the supernatant was collected. To the residue was added a 3-fold amount of ethanol relative to the reaction mixture, and the mixture was stirred (about 5 min), and centrifuged (4° C., 3000 rpm, 10 min). The supernatant was collected and combined with the supernatant collected earlier, and the solvent was evaporated under a nitrogen stream at about 40° C. To the residue was added a predetermined amount of HPLC mobile phase or suitable solvent, and the mixture was stirred and used as an HPLC sample. The sample was injected into HPLC and a radiochromatogram was obtained. From the obtained radiochromatogram, the metabolism activity and metabolite generating activity of the ^14C-labeled test compound was calculated.

T2 sequence (P11712 whole entry, canonical isoform): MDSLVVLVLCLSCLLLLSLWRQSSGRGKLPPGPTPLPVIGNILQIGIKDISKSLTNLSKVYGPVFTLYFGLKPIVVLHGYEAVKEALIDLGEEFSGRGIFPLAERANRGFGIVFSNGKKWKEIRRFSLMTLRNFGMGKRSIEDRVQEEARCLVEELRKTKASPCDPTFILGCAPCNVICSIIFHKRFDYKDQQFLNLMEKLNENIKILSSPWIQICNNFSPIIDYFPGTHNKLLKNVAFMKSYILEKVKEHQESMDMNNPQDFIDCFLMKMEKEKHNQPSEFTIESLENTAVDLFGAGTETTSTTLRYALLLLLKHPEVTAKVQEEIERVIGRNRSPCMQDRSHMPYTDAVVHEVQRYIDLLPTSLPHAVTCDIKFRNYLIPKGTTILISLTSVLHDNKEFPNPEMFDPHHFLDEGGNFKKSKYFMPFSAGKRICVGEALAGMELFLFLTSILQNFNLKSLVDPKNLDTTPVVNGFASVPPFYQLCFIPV
Sequence of CYP3A4 (P08684 whole entry, canonical isoform): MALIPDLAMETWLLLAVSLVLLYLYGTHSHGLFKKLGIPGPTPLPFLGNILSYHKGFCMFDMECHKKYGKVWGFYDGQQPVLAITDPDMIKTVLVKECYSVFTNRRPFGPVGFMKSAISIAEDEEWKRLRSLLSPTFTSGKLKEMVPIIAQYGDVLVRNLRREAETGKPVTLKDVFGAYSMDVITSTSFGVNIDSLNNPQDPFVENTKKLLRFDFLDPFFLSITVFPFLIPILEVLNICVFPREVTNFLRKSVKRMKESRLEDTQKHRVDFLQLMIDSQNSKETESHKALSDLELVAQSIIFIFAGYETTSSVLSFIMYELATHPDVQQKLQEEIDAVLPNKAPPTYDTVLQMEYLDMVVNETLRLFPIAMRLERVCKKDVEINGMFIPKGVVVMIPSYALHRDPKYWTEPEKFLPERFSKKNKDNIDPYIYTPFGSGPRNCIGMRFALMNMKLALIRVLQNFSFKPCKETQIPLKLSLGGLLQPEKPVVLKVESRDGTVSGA
Sequence of CYP2C19 (P33261 whole entry, canonical isoform): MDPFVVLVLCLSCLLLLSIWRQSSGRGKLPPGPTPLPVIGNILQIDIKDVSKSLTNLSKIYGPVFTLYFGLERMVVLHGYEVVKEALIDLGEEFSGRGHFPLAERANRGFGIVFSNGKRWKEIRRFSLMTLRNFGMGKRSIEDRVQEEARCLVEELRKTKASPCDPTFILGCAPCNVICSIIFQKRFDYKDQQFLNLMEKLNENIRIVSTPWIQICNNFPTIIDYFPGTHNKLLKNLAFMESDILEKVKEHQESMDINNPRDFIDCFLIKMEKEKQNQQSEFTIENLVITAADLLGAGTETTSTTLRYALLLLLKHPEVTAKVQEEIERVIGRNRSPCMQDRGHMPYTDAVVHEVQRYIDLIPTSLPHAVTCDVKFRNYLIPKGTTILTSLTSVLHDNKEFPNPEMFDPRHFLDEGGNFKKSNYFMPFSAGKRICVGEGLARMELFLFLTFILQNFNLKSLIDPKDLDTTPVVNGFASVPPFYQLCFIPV

Structure (SMILES)	EC50 [1] [nmol/L]	TG lowering rate (normal rats; 0.3 mg/kg)	TG lowering rate (%, 0.3 mg/kg, p.o.) TG ([2]; first column)	TG lowering rate (%, 0.3 mg/kg, p.o.) TG ([2]; second column)	TG-lowering action (normal rats) [%]	oxidative metabolism by human liver microsome [5]	further results
CC(C)(Sc1nc(C(=O)COc2ccc(-c3ccc(F)cc3)cc2)cs1)C(=O)O [Example 3, 2-[(4-{[(4′-fluorobiphenyl-4-yl)oxy]acetyl}-1,3-thiazol-2-yl)thio]-2-methylpropionic acid]	4.7	–	–	–	–	–	–
CC(C)(Sc1nc(C(O)COc2ccc(-c3ccc(F)cc3)cc2)cs1)C(=O)O (stereo not shown) [Example 2, 2-[(4-{2-[(4′-fluorobiphenyl-4-yl)oxy]-1-hydroxyethyl}-1,3-thiazol-2-yl)thio]-2-methylpropionic acid]	8.4	56%	38%	34%	–	–	–
CCCCCCCN(CCc1ccc(SC(C)(C)C(=O)O)cc1)C(=O)Nc1ccc(F)cc1F [GW-9578]	–	50-60%	30-50%	30-50%	–	–	–
CC(C)(Sc1nc(CCOc2ccc(-c3ccc(F)cc3)cc2)cs1)C(=O)O [compound A, 2-[(4-{2-[(4′-fluorobiphenyl-4-yl)oxy]ethyl}-1,3-thiazol-2-yl)thio]-2-methylpropionic acid]	10.4	–	–	–	0.7	observed	metabolism by CYP2C9 (CYP2C9 [3]): mainly metabolized by CYP2C9; metabolism by CYP3A4 (CYP3A4): also metabolized; enzyme mainly involved in the metabolism (investigation using the inhibitor) (CYP2C9 [4]): CYP2C9; metabolism by CYP2C8 (CYP2C8): also metabolized; metabolism by CYP2C19 (CYP2C19): also metabolized
CC(C)(Sc1nc([C@H](O)COc2ccc(-c3ccc(F)cc3)cc2)cs1)C(=O)O [Example 12, 2-[(4-{(1S)-2-[(4′-fluorobiphenyl-4-yl)oxy]-1-hydroxyethyl}-1,3-thiazol-2-yl)thio]-2-methylpropionic acid]	3.1	–	–	–	15.1	could not be confirmed	TG lowering rate (normal rats; 0.1 mg/kg): 52%; transcription activation activity relative to compound A (times stronger) ([1]; compared with compound A (10.41 nmol/l)): ≥ 3 times; involvement in the metabolism by CYP ([5]; summary statement in description): not involved in the metabolism by CYP
